Results from patent US12369583B2, “Nematicidal compositions” (SYNGENTA CROP PROTECTION AG, priority 2018, dated 2025).

How the values were obtained:
[1] = test system: Soybean Cyst Nematode (Heterodera glycines) eggs; test: Evaluation of Soybean Cyst Nematode egg hatch; format: cell-based
[2] = test system: Root Knot Nematode (Meloidogyne incognita) eggs; test: Evaluation of Root Knot Nematode egg hatch; format: cell-based
[3] = test system: Reniform Nematode (Rotylenchulus reniformis); test: Reniform Nematode efficacy on soybean, soil nematode count compared to check; format: in vivo
[4] = test system: Lesion Nematode (Pratylenchus Spp.); test: Lesion Nematode control in corn, stained root tissue; format: in vivo
Excerpt: Corn root tissue was stained using acid fuchsin/methyl blue to assess for endoparasitic, endo/ectoparasitic, and semi endoparasitic nematodes that have entered the root system, using standard methodology. The effect of pydiflumetofen was compared to fluopyram.

[5] = test system: Soybean Cyst Nematode (Heterodera glycines); test: Control of Heterodera glycines on soybean in a greenhouse, seed treatment; format: in vivo
Excerpt: Methodology for evaluating control of Heterodera glycines at all life stages on soybean in a greenhouse.
Five thousand Heterodera glycine eggs where placed in a 1 inch hole in the center of 3.5 inch×8 inch deep plastic pots. The seeds were inoculated first when applying the active compound as a seed treatment. The treated seed was placed in the center hole and covered up with sterilized top soil. Each pot was watered by hand, with approximately 50 mls of water applied to each pot once per day. 35 day after planting, the soil was gently rinsed from the roots of the emerged plants and place in a 20 mesh over a 60-mesh sieve. The root system was blasted with water to remove mature females. The 20-mesh sieve removed. The females were washed to the bottom of the 60-mesh sieve and rinsed into a tube for counting under a stereoscope. For root penetration experiments, the roots of the plants were removed from the pots at 7-14 days after planting, rinsed clean of soil, and stained with acid fuchsin stain. Stained nematodes in the roots were counted using an electronic stereoscope.
The action of pydiflumetofen against soybean syst nematode (SCN; Heterodera glycines) and its effect on soybean plants was assessed out as described previously, and compared to that of fluopyram. The number of SCN per stained root was counted, and the mean root weight per plant calculated, thus enabling the number of SCN per gram of root to be calculated.

[6] = test system: Soybean Cyst Nematode (Heterodera glycines) on Soybean; test: Soybean yield data, seed treatment (trials 4-6); format: in vivo
[7] = test system: Sting (Belonolaimus longicaudatus); test: In vitro dose response assay against Sting nematode; format: cell-based
Excerpt: (§1) Lance (Hoplolaimus Spp.) and Sting (Belonolaimus longicaudatus) Nematode In Vitro Assay Measuring Dose Response of APN Against Sting and Lance Nematode.

[8] = test system: Root Knot (Meloidogyne incognita); test: Multiple nematode species on cotton, soil counts: Root Knot; format: in vivo; conditions: 0.15 mg ai/seed, measured 71 days after planting
[9] = test system: Reniform Nematode (Rotylenchulus reniformis); test: Multiple nematode species on cotton, soil counts: Reniform; format: in vivo; conditions: 0.15 mg ai/seed, measured 71 days after planting
[10] = test system: Lance (Hoplolaimus Spp.); test: In vitro dose response assay against Lance nematode; format: cell-based
Excerpt: as §1

[11] = test system: Lesion Nematode (Pratylenchus brachyurus); test: Lesion Nematode efficacy on soybean, stained roots; format: in vivo
Excerpt: Soybean plant roots were stained using acid fuchsin/methyl blue to assess for endoparasitic, endo/ectoparasitic, and semi endoparasitic nematodes that have entered the root system, using standard methodology.

[12] = test system: Spiral (Helicotylenchus Spp.); test: Multiple nematode species on cotton, soil counts: Spiral; format: in vivo; conditions: 0.15 mg ai/seed, measured 71 days after planting
[13] = test system: Root Knot Nematode (Meloidogyne incognita); test: Root Knot Nematode control on soybean, gall count and rating; format: in vivo
Excerpt: Root Knot Nematode (Meloidogyne incognita) Methodology for Evaluating Root Knot Nematode Gall Count and Rating Process The roots of the plants were removed from the soil. The root system was then sprayed with water to remove remaining soil. The roots were spread out on a tray or counter top and the rate of galling or place each root system under a magnification light and count galls. For gall assessment ratings, a rating on a scale of 0-10 scale was given when compared against a standard gall rating chart. Gall count was also assessed.

[14] = Sodium hypochlorite 30%, no ppm concentration printed
[15] = Series 2 Trial 1, 0.075 mg ai/seed
[16] = Series 2 Trial 1, 0.15 mg ai/seed
[17] = Series 2 Trial 1, 0.30 mg ai/seed
[18] = Series 1 Trial 1, 0.0375 mg ai/seed
[19] = Series 1 Trial 1, 0.075 mg ai/seed
[20] = Series 1 Trial 1, 0.15 mg ai/seed
[21] = Series 1 Trial 2, 0.075 mg ai/seed
[22] = Series 1 Trial 2, 0.15 mg ai/seed

OCl [Sodium hypochlorite 30%, Sodium hypochlorite]
Percent Egg Hatch Reduction [1, 14]: 100.0%
Percent Egg Hatch Reduction [2, 14]: 100.0%

O=C(NCCc1ncc(C(F)(F)F)cc1Cl)c1ccccc1C(F)(F)F [Fluopyram, reference compound]
Percent Egg Hatch Reduction ([1]; 1 ppm): −1.3%
Percent Egg Hatch Reduction ([1]; 10 ppm): 4.5%
Percent Egg Hatch Reduction ([1]; 100 ppm): 61.9%
Percent Egg Hatch Reduction ([2]; 1 ppm): 1.1%
Percent Egg Hatch Reduction ([2]; 10 ppm): 55.9%
Percent Egg Hatch Reduction ([2]; 100 ppm): 54.7%
Nematode Reduction Compared to Check (mean difference in soil nematode count) ([3]; 0.15 mg/seed): −3146
Lesion Nematode per gram of Root ([4]; 0.25 mg ai/seed): 211
Lesion Nematodes within root system ([4]; 0.25 mg ai/seed): 108
Mean SCN/root [5, 15]: 20.8
No. SCN/g root tissue [5, 15]: 12.1
Mean SCN/root [5, 16]: 17.7
No. SCN/g root tissue [5, 16]: 30.3
Mean SCN/root [5, 17]: 7.3
No. SCN/g root tissue [5, 17]: 23.4
Mean Difference in Yield Compared to Checks ([6]; Trial 4, 0.15 mg ai/seed): −3.5 Bu/Ac
Mean Difference in Yield Compared to Checks ([6]; Trial 5, 0.15 mg ai/seed): +5.4 Bu/Ac
Mean Difference in Yield Compared to Checks ([6]; Trial 6, 0.15 mg ai/seed): +2.9 Bu/Ac

O=S(=O)(CCC(F)=C(F)F)c1ncc(Cl)s1 [Fluensulfone]
Percent Egg Hatch Reduction ([1]; 1 ppm): −2.1%
Percent Egg Hatch Reduction ([1]; 10 ppm): −1.5%
Percent Egg Hatch Reduction ([1]; 100 ppm): 0.5%
Percent Egg Hatch Reduction ([2]; 1 ppm): −3.5%
Percent Egg Hatch Reduction ([2]; 10 ppm): −0.9%
Percent Egg Hatch Reduction ([2]; 100 ppm): 48.8%

c1ccc(-c2noc(-c3cccs3)n2)cc1 [Tioxazafen]
Percent Egg Hatch Reduction ([1]; 1 ppm): 0.4%
Percent Egg Hatch Reduction ([1]; 10 ppm): −0.5%
Percent Egg Hatch Reduction ([1]; 100 ppm): −0.9%
Percent Egg Hatch Reduction ([2]; 1 ppm): −1.9%
Percent Egg Hatch Reduction ([2]; 10 ppm): −0.8%
Percent Egg Hatch Reduction ([2]; 100 ppm): 4.4%

CON(C(=O)c1cn(C)nc1C(F)F)C(C)Cc1c(Cl)cc(Cl)cc1Cl (centres unmarked) [Pydiflumetofen, 3-(difluoromethyl)-N-methoxy-1-methyl-N-[1-methyl-2-(2,4,6-trichloro-phenyl)ethyl]-1H-pyrazole-4-carboxamide]
Percentage of Dead Nematodes ([7]; exposure 1 hours, 0.1 ppm): 6.3 Percentage
Percentage of Dead Nematodes ([7]; exposure 1 hours, 10 ppm): 5.9 Percentage
Percentage of Dead Nematodes ([7]; exposure 1 hours, 100 ppm): 11.3 Percentage
Percentage of Dead Nematodes ([7]; exposure 24 hours, 0.1 ppm): 4.7 Percentage
Percentage of Dead Nematodes ([7]; exposure 24 hours, 10 ppm): 59.5 Percentage
Percentage of Dead Nematodes ([7]; exposure 24 hours, 100 ppm): 42.9 Percentage
Percentage of Dead Nematodes ([7]; exposure 48 hours, 0.1 ppm): 29.3 Percentage
Percentage of Dead Nematodes ([7]; exposure 48 hours, 10 ppm): 56.3 Percentage
Percentage of Dead Nematodes ([7]; exposure 48 hours, 100 ppm): 58 Percentage
Percentage of Dead Nematodes ([7]; exposure 72 hours, 0.1 ppm): 34.9 Percentage
Percentage of Dead Nematodes ([7]; exposure 72 hours, 10 ppm): 81.1 Percentage
Percentage of Dead Nematodes ([7]; exposure 72 hours, 100 ppm): 97.1 Percentage
Juveniles per 100 cc s Soil [8]: 132
Percent Egg Hatch Reduction ([1]; 1 ppm): 4.7%
Percent Egg Hatch Reduction ([1]; 10 ppm): 34.7%
Percent Egg Hatch Reduction ([1]; 100 ppm): 64.0%
Juveniles per 100 cc s Soil ([9]; Reniform (adult)): 2.8
Juveniles per 100 cc s Soil ([9]; Reniform (juvenile)): 1752
Percent Egg Hatch Reduction ([2]; 1 ppm): 1.7%
Percent Egg Hatch Reduction ([2]; 10 ppm): 12.8%
Percent Egg Hatch Reduction ([2]; 100 ppm): 30.6%
Percentage of Dead Nematodes ([10]; exposure 1 hours, 0.1 ppm): 12.7 Percentage
Percentage of Dead Nematodes ([10]; exposure 1 hours, 10 ppm): 37.9 Percentage
Percentage of Dead Nematodes ([10]; exposure 1 hours, 100 ppm): 74.8 Percentage
Percentage of Dead Nematodes ([10]; exposure 24 hours, 0.1 ppm): 68.5 Percentage
Percentage of Dead Nematodes ([10]; exposure 24 hours, 10 ppm): 81.6 Percentage
Percentage of Dead Nematodes ([10]; exposure 24 hours, 100 ppm): 23.9 Percentage
Percentage of Dead Nematodes ([10]; exposure 48 hours, 0.1 ppm): 41 d Percentage
Percentage of Dead Nematodes ([10]; exposure 48 hours, 10 ppm): 93.8 Percentage
Percentage of Dead Nematodes ([10]; exposure 48 hours, 100 ppm): 74.8 Percentage
Percentage of Dead Nematodes ([10]; exposure 72 hours, 0.1 ppm): 32.9 Percentage
Percentage of Dead Nematodes ([10]; exposure 72 hours, 10 ppm): 93.8 Percentage
Percentage of Dead Nematodes ([10]; exposure 72 hours, 100 ppm): 77.5 Percentage
Lesion Nematode per gram of Root ([11]; 0.0375 mg ai/seed): 164.3
Lesion Nematodes w/l root ([11]; 0.0375 mg ai/seed): 44.9
Lesion Nematode per gram of Root ([11]; 0.075 mg ai/seed): 141.5
Lesion Nematodes w/l root ([11]; 0.075 mg ai/seed): 38.3
Lesion Nematode per gram of Root ([11]; 0.15 mg ai/seed): 105.3
Lesion Nematodes w/l root ([11]; 0.15 mg ai/seed): 32.3
Juveniles per 100 cc s Soil [12]: 254
Nematode Reduction Compared to Check (mean difference in soil nematode count) ([3]; 0.075 mg/seed): −2912
Effect on nematode numbers (in words) [4]: reduce nematode numbers
Lesion Nematode per gram of Root ([4]; 0.4 mg ai/seed): 389
Lesion Nematodes within root system ([4]; 0.4 mg ai/seed): 302
Lesion Nematode per gram of Root ([4]; 0.5 mg ai/seed): 105
Lesion Nematodes within root system ([4]; 0.5 mg ai/seed): 124
Cysts per Gram of Root [5, 18]: 147.9
Mature SCN Cysts [5, 18]: 24.0
Stained Juveniles w/l root [5, 18]: 22.5
Cysts per Gram of Root [5, 19]: 167.5
Mature SCN Cysts [5, 19]: 21.3
Stained Juveniles w/l root [5, 19]: 19.0
Cysts per Gram of Root [5, 20]: 105.0
Mature SCN Cysts [5, 20]: 16.3
Stained Juveniles w/l root [5, 20]: 12.5
SCN Within Root [5, 21]: 17.5
Soybean Cyst Nematodes per Gram of Root [5, 21]: 128
SCN Within Root [5, 22]: 5.0
Soybean Cyst Nematodes per Gram of Root [5, 22]: 29.6
SCN Cysts per Root ([5]; Series 1 Trial 3, 0.15 mg ai/seed): 10.4
SCN Cysts per Root ([5]; Series 1 Trial 3, 0.30 mg ai/seed): 5.5
Mean SCN/root [5, 15]: 52.3
No. SCN/g root tissue [5, 15]: 30.4
Mean SCN/root [5, 16]: 37.0
No. SCN/g root tissue [5, 16]: 16.9
Mean SCN/root [5, 17]: 35.2
No. SCN/g root tissue [5, 17]: 15.2
Mean Difference in Yield Compared to Checks ([6]; Trial 4, 0.075 mg ai/seed): +3.0 Bu/Ac
Mean Difference in Yield Compared to Checks ([6]; Trial 5, 0.075 mg ai/seed): +3.7 Bu/Ac
Mean Difference in Yield Compared to Checks ([6]; Trial 6, 0.075 mg ai/seed): +7.5 Bu/Ac
Root Knot Nematode Galling (0-10 scale) ([13]; 0.075 mg ai/seed): 6.8
Root Knot Nematode Galls per Root ([13]; 0.075 mg ai/seed): 52.6
Root Knot Nematode Galling (0-10 scale) ([13]; 0.15 mg ai/seed): 1.5
Root Knot Nematode Galls per Root ([13]; 0.15 mg ai/seed): 11.2

CNC(=O)O/N=C/C(C)(C)SC [Aldicarb]
Nematode Reduction Compared to Check (mean difference in soil nematode count) ([3]; in-furrow (5.6 Kg/Ha)): −1937
